According to US20090061022A1, “Pharmaceutical composition comprising arsenite for the treatment of malignancy” (priority 2004, published 2009):
Several values for one entry are separate records, joined by “and”; a condition that tells them apart may be missing. Equal entries are not always repeated.

Columns and labels:
[1] = Maximum tolerated dose assessment after daily oral gavages for 14 days in the rat; format: in vivo, Wistar rats; conditions: for Findings / Findings (mortality): rat; for MTD (or LD10 value): rats, oral once daily 14 days, calculated
Method: The objective of this oral toxicity study was to establish a MTD after repeated administration of sodium meta-arsenite to rats.
Ampoules of sodium meta-arsenite (dissolved in 10% (w/v) glucose in water) in concentrations of 1.2, 2.2, 3.8, 7.0 and 12.6 mg/ml were stored in a refrigerator in the dark. Based on the previous study, the following doses were selected: 6, 11, 19, and 35 and 63 mg/kg/day. Each dose was administered daily by oral gavages to groups of 4 male and 4 female Wistar rats for 14 days, followed by a 14-day recovery period.
Clinical signs were evaluated daily, and body weights were recorded twice weekly. Scheduled termination was performed on day 29 (after 14 days of recovery). Macroscopic examination was performed on all animals.

[2] = system: panel of 12 human cancer cell lines; test: Cytotoxic activity, whole panel of 12 human cancer cell lines, modified propidium iodide assay; conditions: for times more potent than arsenic acid sodium salt: panel of 12
Method: Nine kinds of human cancer cell lines out of six kinds of cancers were grown at 37° C. under a controlled atmosphere of 95% air and 5% CO2. The cells were grown on monolayer cultures of RPMI 1640 cell culture medium supplemented with 10% fetal calf serum.
The grown cells were harvested from exponential phase cultures by trypsinization and counted. The counted cells were placed in a plate, which has ninety six wells. Each well on the plate is in a shape of a flat-bottomed microtitre. Density of the cells in a suspension was adjusted depending on the cell line. The suspension was prepared by diluting the grown cells with the culture medium (RPMI 1640). Concentration of the cells were varied from 5×10^4 to 1×10^5 viable cells/ml. 100 μl of the suspension was placed in each well of the plate. […] Then add 50 μl of culture medium (RPMI 1640) only to 6 wells, 50 μl/well, among the 96 wells of one plate. It is called controlled. One well is filled with culture medium plus 5-FU. And another 50 μl of culture medium plus one of the stock solutions were added to each of the left 89 wells to allow cells to resume exponential growth.
In a further study, the cytotoxic activity profile of sodium meta-arsenite and arsenic acid sodium salt was investigated in different panels containing twelve (12) human cancer cell lines from eight (8) kinds of human cancers. The cancer cell samples were prepared as described in 1-1-B. Propidium iodide fluorescence assay method for this test was modified as the follows.

[3] = Maximum tolerated dose assessment after daily oral administration for 14 days in the pig; format: in vivo, pigs (large white×landrace×pietrain)
Text: The aims of this study were to establish a MTD and the kinetics of sodium meta-arsenite after repeated administration to pigs.
Sodium meta-arsenite was formulated using enteric-coated capsules (size no. 2) for a toxicology study in pigs. Cellulose-based clear capsules contained 1) sodium meta-arsenite as an active ingredient, 2) microcrystalline cellulose and colloidal silicon dioxide as excipients. The coating material of the capsules comprised of Eudragit L 12.5 (acrylic polymer) and Macrogol 6000 (polyethylene glycol as softener). It is resistant to gastric fluid at least for 1 hour.
The oral route was selected, as it is the intended route of administration in human. Based on previous studies, the following doses were selected: 7.5 and 10 mg/pig (equivalent to 24.5 and 32.5 mg/man). Capsules (enteric coated, size no. 2) of sodium meta-arsenite in concentrations of 7.5 and 10 mg/capsule, formulations, were stored in a refrigerator in the dark. Each dose was administered orally by gavages to groups of 12 male growing pigs (large white×landrace×pietrain) for 14 days, followed by a 14-day recovery period. The mean weight of the pigs was 16.8±2.3 kg at the beginning of the study.
Mortality and viability were checked twice daily, clinical examinations were performed daily and body weight was recorded twice a week. Scheduled termination was performed on day 29 (after 14 days of recovery). Macroscopic examination was performed on all animals and samples from brain (cerebellum, mid brain, cortex), heart, kidney, liver, lung, spleen, stomach wall, small intestine and large intestine taken for histopathology.
Blood samples (10 ml) of both dose groups were collected for hematology and biochemistry analysis on days −2, −1, 0, 7, 14, 21, 28. The samples collected during the treatment period were taken prior to the administration of the next drug. […]

[4] = Subacute toxicity study, daily oral gavages for 14 days in the mouse, 28-day recovery; format: in vivo, CD-1 male mice; conditions: for Hematology: day 5 and end of treatment
Method: The nature and purpose of this subacute oral toxicity study was to determine the extent to which cumulative toxicity occurred with repeated administration of sodium meta-arsenite for 14 days to mice. Moreover, the study was intended to define the most likely target organs for toxicity and to investigate the reversibility of toxicity.
Ampoules of sodium meta-arsenite (dissolved in 10% (w/v) glucose in water) in concentrations of 0, 1.6 and 3.2 mg/ml were stored in a refrigerator in the dark. Based on the previous study, the following doses were selected: 0, 16 (½ MTD) and 32 mg/kg/day (MTD). Each dose was administered daily by oral gavages to groups of 20 CD-1 male mice for 14 days, followed by a 28-day recovery period.
Ten animals of each group were killed on day 15 (main groups). The remaining animals (recovery groups) were killed on day 43 after a recovery period of 28 days. Blood samples were collected from all main group animals on day 5 to determine effects on the hematology. Blood samples were also collected at the end of the treatment period (day 15, all main group animals) and after recovery (day 43, all recovery group animals) for hematology and clinical biochemistry.
Clinical signs were evaluated daily and body weights were recorded twice weekly. Macroscopic examination was performed at termination. Organ weight measurements were performed at scheduled termination, i.e. day 15 (main groups) and day 43 (recovery groups). Microscopic examination was performed on a selection of tissues of both main and recovery animals.

[5] = panel of 12 human cancer cell lines, 4 days

## O=[As][O-].[Na+] [Sodium meta-arsenite, sodium meta-arsenite]
[1]; 6 mg/kg/day oral gavage 14 days
  Findings: No findings were noted
[1]; 11 mg/kg/day oral gavage 14 days
  Findings: Hunched posture was noted in one male from day 7-13 of treatment, diarrhea was observed for one male on day 6
[1]; 19 mg/kg/day oral gavage 14 days
  Findings: Hunched posture (day 6-14 of treatment) was noted in 2 males
[1]; 35 mg/kg/day oral gavage 14 days
  Findings (mortality): One male was found dead on day 13 of treatment, all females died between days 3 to 6
[1]; 63 mg/kg/day oral gavage 14 days
  Findings (mortality): All animals died on days 2 to 5
[1]; females
  MTD (or LD10 value): 25 mg/kg/day
[1]; males
  MTD (or LD10 value): 33 mg/kg/day
[2]; 1 μg/ml
  human cancer cell lines in which active, percent of 12: 33%
[2]; dose level 10 μg/ml
  human cancer cell lines in which active, percent of 12: 100%
[2]; dose level 100
  human cancer cell lines in which active, percent of 12: 100%
[2]; dose level lower than 1 μg/ml
  cytotoxic activity in panel of 12: did not display any cytotoxic activity at all
[2]; in μg/ml
  times more potent than arsenic acid sodium salt: over 20 times
[2]; on a molar basis
  times more potent than arsenic acid sodium salt: approximately 10 times
[2]; [5]
  Mean IC50: 0.9 µg/mL
  Mean IC70: 2.0 μg/ml and 15 μM
  Mean IC90: 6.8 µg/mL
[2]; read-out: Mean IC50, panel of 12 human cancer cell lines, 4 days
  IC50: 7 µM
[2]; read-out: Mean IC90, panel of 12 human cancer cell lines, 4 days
  IC90: 52 µM
[3]; 7.5 and 10 mg/pig, 14 days
  Hematological and biochemical parameters: No (statistical) significant differences
[3]; 7.5 and 10 mg/pig, enteric-coated capsules, 14 days + 14-day recovery
  Mortality: No pigs died or were killed in extremis
[3]; pigs at the doses of 7.5 and 10 mg/day
  Drug related side effects: did not induce any drug related side effects
[4]; 16 mg/kg/day oral 14 days, mouse
  Clinical signs: swelling of the abdomen and piloerection
[4]; 16 mg/kg/day
  Hematology: lower erythrocyte count, hemoglobin and haematocrit
[4]; 16 mg/kg/day, end of treatment
  Microscopic examination: atrophy of the lymphoid organs (Peyer's patches, thymus), ulceration and hyperplasia of the fore stomach epithelium, necrosis of liver and gall bladder and myeloid hyperplasia and congestion of the sternal bone marrow
  Necropsy findings: crateriform retractions of the fore stomach
[4]; 32 mg/kg/day oral 14 days, mouse
  Clinical signs: swelling of the abdomen and piloerection
[4]; 32 mg/kg/day oral 14 days, groups of 20 male mice
  Premature mortality during the treatment phase, males: 7
[4]; 32 mg/kg/day, after treatment
  Necropsy findings: crateriform retractions of the forestomach and a reduced thymus size
[4]; 32 mg/kg/day
  Hematology: Lower leucocyte count, platelet count, affected erythrocyte parameters (lower erythrocyte count, hemoglobin and haematocrit) and low reticulocyte counts
[4]; 32 mg/kg/day, end of treatment
  Clinical biochemistry: Decreased glucose, total protein and albumin concentrations and increased sodium, calcium and inorganic phosphorus concentrations
  Microscopic examination: atrophy of the lymphoid organs (mesenteric and mandibular lymph nodes, Peyer's patches, spleen and thymus), ulceration and hyperplasia of the fore stomach epithelium, ulceration of the caecum, necrosis of the liver and gall bladder
  Organ weights: Decreased absolute and relative spleen and thymus weight and increased relative liver weight
[4]; 16 and 32 mg/kg/day oral 14 days, mouse
  Main target organs for toxicity: bone marrow, lymphoid organs and the forestomach
